Test results taken from US9186390B2, “Methods and uses of TIE2 binding and/or activating agents” (Sunnybrook Health Sciences Center, priority 2010, dated 2015).
Entries after “also recorded” stand apart in the source; their conditions may differ.

How the values were obtained:
CFU-G = test: Methocult colony assay (ex vivo bone marrow proliferation and differentiation); assay type: cell-based, CD1 mice; conditions: 1 ng/ml or 10 ng/ml, Methocult M3434, 7 days
Procedure: Bone marrow was flushed from the femur bones of two month old CD1 mice and was suspended in Iscove's Modified Dulbecco's Media (Sigma, St. Louis, Mo.) at a concentration of 1×10^5 per ml. Cells were thoroughly suspended in methocellulose M3434 media (Stem Cell Technologies, Vancouver, BC) such that 1×10^4 cells per 35 mm tissue culture dish were dispensed. Prior to dispensing into the tissue culture dishes either vehicle (PBS) or Vasculotide 1 ng/ml or 10 ng/ml was mixed in. Plates were placed in an incubator at 37° C., 5% CO2 for 7 days without replenishment of vehicle or Vasculotide. […] Using an ex vivo model of bone marrow proliferation and differentiation (methocult), the influence of Vasculotide on bone marrow extracted from the femurs of normal CD1 mice was observed. Bone marrow was disaggregated and resuspended in methocult M3434 media plus Vasculotide (Vasc 1 ng/ml or 10 ng/ml) or control (PBS).

acute asthma mice = test: Acute asthma model (ovalbumin sensitization, intranasal challenge); assay type: in vivo, Balb/c mice
Procedure: (Chronic asthma model) Seven week old female Balb/c mice were injected intraperitoneally (IP) with 20 μg of chicken ovalbumin (OVA) absorbed with 1 mg aluminum hydroxide, an adjuvant known to promote the development of a Th2 response by the immune system, on day 0 (denoted by first day injection) and day 7. Full body inhaled exposure to OVA was initiated at day 21. Briefly, these treatments utilized an InExpose full body aerosol chamber (Scireq, Montreal, Canada) where a 1% OVA solution, suspended in PBS, pH 7.45, was nebulized at 0.2 mL/min with a filtered room air flow rate of 2400 mL/min for a total period of 30 minutes, 3 times a week for either 42 (FIG. 13A) or 62 days (FIG. 13B). (Acute asthma model) Seven week old female Balb/c mice were injected intraperitoneally with 50 μg of chicken OVA absorbed with 1 mg aluminum hydroxide on day 0 (denoted by first day injection) and day 7. Aqueous OVA ([…] in PBS) was delivered intranasally daily from day 20 to day 24 (FIG. 2), Vasculotide or saline vehicle (control, PBS) was delivered to the mice via IP injections.
Blood was collected from the left ventricle of anaesthetized mice into heparinized 1 cc syringes. Following collection, blood was placed into Li-heparin microtubes. Subsequently, the tubes were centrifuged at 3000 RPM for 15 minutes at 4° C. Plasma was collected from the top of the samples and frozen at −80° C. for later analysis. The remaining buffy coat and red blood cells were lysed then fixed in 1× lyse/fix buffer (BD Biosciences, Mississauga, Canada) according to manufacturer's instructions.
Twenty-four hours after last aerosol exposure and immediately following exsanguinations, tissue was dissected from neck to expose trachea. A small lateral incision was made in the trachea to allow passage of 23 gauge lavage catheter into trachea. The catheter, attached to a 3 cc syringe containing warmed Hanks buffer, was carefully passed into the lumen of the trachea. A suture was secured around the trachea with a knot to secure the catheter in place. Buffer (1 cc) was injected slowly into the lungs and fully aspirated three times. The volume of recovered buffer was recorded for each animal to facilitate calculation of BAL infiltrate.
Analysis of plasma samples generated for the asthma study was the same as that outlined for the atopic dermatitis study with one small modification. Plasma from mice used in the asthma study was diluted 1:4 instead of 1:8 for the atopic dermatitis samples.
(BAL analysis) Collected BAL fluid was centrifuged at 1000 RPM for 10 minutes at 4° C. BAL fluid was removed and collected for subsequent CBA analysis. The BAL cell pellet was lysed/fixed in 1× lyse/fix buffer according to manufacturer's instructions (BD Biosciences, Mississauga, Canada). The total number of cells contained in each sample was determined by flow cytometry using flow-set beads (Count Bright Beads, Invitrogen), to facilitate sample volume and cell count calculations. A total of 7000 beads were counted for each sample. Flow cytometry analysis was gated on FSC/SSC to eliminate debris and dead cells. Differential cell count analysis was also performed by FACS where surface marker antibodies were used as follows: eosinophils (SSC^hi FITCmed Ige^med), neutrophils (SSC^med FITC^hi Ige^med), monocytes (SSC^med CD11b^+ CD115^+) and lymphocytes (SSC^lo and CD4^+ or CD8^+). In addition to monocyte markers (SSC^med CD11b^+ CD115^+), these cell populations were further characterized using antibodies specific for Tie2, TLR4, and Ly6C. Ly6C^low and Ly6C^high further define monocytes as classical, resident monocytes or inflammatory monocytes, respectively. Identified neutrophils were further labelled with antibodies to Tie2 and TLR4. All cell suspensions were incubated with purified anti-CD16/CD32 mAb (BD Biosciences, Mississauga, ON, Canada) to block non-specific background caused by Fc receptors, followed by incubation with the specific antibodies. […]

[1] = Vasculotide-specific ELISA of circulating Vasculotide in mouse plasma; assay type: in vivo, CD1 mice; conditions: for circulating level in plasma after oral delivery: 2 μg P.O. (gavage)
Source text: Several monoclonal antibodies have been raised against the modified T7 peptide. These antibodies have been extensively validated and used to develop an ELISA which is capable of measuring picogram quantities of Vasculotide in mouse plasma or serum. There is an excellent linear relationship between ELISA signal and Vasculotide concentration with little interference from mouse plasma/serum proteins (FIG. 1C).
The developed ELISA was used to track circulating levels of Vasculotide in the plasma of mice over time. […] The incongruence of these findings is likely due to a paucity of sensitivity in the ELISA-based detection of Vasculotide.

Substance: Vasculotide: Modified T7 peptide (CHHHRHSF, SEQ ID NO:2) conjugated to 10 kDa tetrameric polyethylene glycol-maleimide; Tie2 binding peptide mimetic
- all other populations of cells (colonies) (CFU-G): statistically indistinguishable from PBS control
- total CFU-G numbers (CFU-G; vs PBS): statistically significant, dose-dependent reduction; also recorded: dose dependent, statistically significant reduction
- classical monocytes (Ly6C−) in BAL (acute asthma mice; acute asthma, d24): increased
- number of peripheral blood mononuclear cells (acute asthma mice; acute asthma, d24): prevented a significant increase
- plasma IL-4 (cytometric bead array) (acute asthma mice; acute asthma, d24): decreased
- plasma IL-5 (cytometric bead array) (acute asthma mice; acute asthma, d24): decreased
- plasma IL-13 (cytometric bead array) (acute asthma mice; acute asthma, d24): decreased
- plasma MCP-1 (cytometric bead array) (acute asthma mice; acute asthma, d24): decreased
- plasma MIP1α (cytometric bead array) (acute asthma mice; acute asthma, d24): decreased
- plasma MIP1β (cytometric bead array) (acute asthma mice; acute asthma, d24): decreased
- plasma RANTES (cytometric bead array) (acute asthma mice; acute asthma, d24): decreased
- plasma TNF (cytometric bead array) (acute asthma mice; acute asthma, d24): decreased
- inflammatory monocytes (Ly6C+) in BAL (acute asthma mice; acute asthma, d24, vs PBS asthmatic controls): significantly fewer; also recorded: decreased
- BAL eosinophil absolute counts (acute asthma mice; acute asthma, day 24): reduced; also recorded: statistical reduction
- BAL number of lymphocytes (acute asthma mice; acute asthma, day 24): did not affect; also recorded: non-statistical trend towards decreased
- BAL number of monocytes (acute asthma mice; acute asthma, day 24): did not affect
- BAL number of neutrophils (acute asthma mice; acute asthma, day 24): did not affect; also recorded: non-statistical trend towards decreased
- reduction of total absolute BAL counts (acute asthma mice; acute asthma, systemic (IP) treatment, flow cytometry): 25%
- BAL cell numbers in the absence of asthma (acute asthma mice; non-asthmatic mice): no effect
- time up to which significant levels of circulating Vasculotide are detected by ELISA ([1]; 2 μg I.P., p=0.0149 PBS vs Vasc): up to 24 hours
- circulating level in plasma after oral delivery [1]: no significant levels
- circulating level in plasma after oral delivery ([1]; listed as Vasc-PEG): did not result in any detectable levels
- circulating level in plasma at 24 hours post injection ([1]; I.P., unpaired student t-test vs PBS): statistically detectable level
